Test results as given in PMC5580309, “Molecular-scale features that govern the effects of O-glycosylation on a carbohydrate-binding module” (Chemical Science, 2015).
Bridge positions count the residues as written; N and C are the ends. Peptide text beside a SMILES is read from it. * marks the point of attachment. αGalNAc = CC(=O)N[C@@H]1[C@@H](O)[C@@H](O)[C@@H](CO)O[C@@H]1*; βGlcNAc = CC(=O)N[C@@H]1[C@@H](O)[C@H](O)[C@@H](CO)O[C@H]1*; βGlc = OC[C@H]1O[C@@H](*)[C@H](O)[C@@H](O)[C@@H]1O; βGal = OC[C@H]1O[C@@H](*)[C@H](O)[C@@H](O)[C@H]1O; X6 = C[C@@H]1O[C@@H](*)[C@@H](O)[C@H](O)[C@@H]1O; X9 = OC[C@H]1O[C@H](*)[C@H](O)[C@@H](O)[C@H]1O

Molecular target: T1, thermolysin (Bacillus thermoproteolyticus, UniProt P00800)
T1 sequence (P00800 233-548): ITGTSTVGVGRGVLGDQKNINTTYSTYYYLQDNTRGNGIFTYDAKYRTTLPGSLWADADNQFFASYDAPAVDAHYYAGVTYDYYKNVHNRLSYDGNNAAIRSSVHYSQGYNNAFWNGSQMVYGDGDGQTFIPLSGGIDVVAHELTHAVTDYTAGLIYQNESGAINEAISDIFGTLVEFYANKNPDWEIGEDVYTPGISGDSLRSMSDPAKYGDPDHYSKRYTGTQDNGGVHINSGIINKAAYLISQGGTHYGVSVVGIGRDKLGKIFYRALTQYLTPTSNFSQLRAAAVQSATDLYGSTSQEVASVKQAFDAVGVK
Test: Proteolytic stability: half-life to thermolysin degradation
Format: in vitro ADME
Conditions: for Change in Half-Life to Thermolysin Degradation: glyco-variant minus its corresponding unglycosylated CBM (e.g. 2-1), *** not used in the correlation plot; for half-life: thermolysin (isolated protease), thermolysin degradation, mean of three trials ± SD, procedures as described previously (ESI ref 18)
Method: All error bars reported are standard deviations of data achieved from three separate trials.
cellulose that were determined in accordance with our procedures as described previously 18.
The results are presented as mean of three trials ± SD. *Denotes an averaged value of four trials

Row | Structure (SMILES) | Change in Half-Life to Thermolysin Degradation | half-life
1 | CC[C@H](C)[C@@H]1NC(=O)CNC(=O)CNC(=O)[C@@H](NC(=O)[C@H](CCC(N)=O)NC(=O)CNC(=O)[C@H](Cc2ccc(O)cc2)NC(=O)[C@H](Cc2c[nH]cn2)NC(=O)[C@H](CO[C@@H]2O[C@H](CO)[C@@H](O)[C@H](O)[C@H]2NC(C)=O)NC(=O)[C@H](CCC(N)=O)NC(=O)[C@@H](N)[C@@H](C)O)CSSC[C@@H]2NC(=O)[C@H]([C@@H](C)O)NC(=O)[C@H]([C@@H](C)O)NC(=O)CNC(=O)[C@H](CO)NC(=O)[C@H](C)NC(=O)[C@H](CSSC[C@@H](C(=O)N[C@@H](CC(C)C)C(=O)O)NC(=O)[C@H](CCC(N)=O)NC(=O)[C@H](CO)NC(=O)[C@H](Cc3ccc(O)cc3)NC(=O)[C@H](Cc3ccc(O)cc3)NC(=O)[C@@H]3CCCN3C(=O)[C@H](CC(N)=O)NC(=O)[C@H](CC(C)C)NC(=O)[C@H](C(C)C)NC(=O)[C@H](CCC(N)=O)NC2=O)NC(=O)[C@H](C(C)C)NC(=O)[C@H]([C@@H](C)O)NC(=O)[C@@H]2CCCN2C(=O)CNC(=O)[C@H](CO)NC(=O)[C@H](Cc2ccc(O)cc2)NC(=O)CNC1=O [CBM variant 23] (H-TQS(βGlcNAc)HYGQCGGIGYSGPTVCASGTTCQVLNPYYSQCL-OH; disulfide 8-25, 19-35) | 5.4 min | 19.2 ± 0.6 min
2 | CC[C@H](C)[C@@H]1NC(=O)CNC(=O)CNC(=O)[C@@H](NC(=O)[C@H](CCC(N)=O)NC(=O)CNC(=O)[C@H](Cc2ccc(O)cc2)NC(=O)[C@H](Cc2c[nH]cn2)NC(=O)[C@H](CO[C@@H]2O[C@H](CO)[C@@H](O)[C@H](O)[C@H]2O)NC(=O)[C@H](CCC(N)=O)NC(=O)[C@@H](N)[C@@H](C)O)CSSC[C@@H]2NC(=O)[C@H]([C@@H](C)O)NC(=O)[C@H]([C@@H](C)O)NC(=O)CNC(=O)[C@H](CO)NC(=O)[C@H](C)NC(=O)[C@H](CSSC[C@@H](C(=O)N[C@@H](CC(C)C)C(=O)O)NC(=O)[C@H](CCC(N)=O)NC(=O)[C@H](CO)NC(=O)[C@H](Cc3ccc(O)cc3)NC(=O)[C@H](Cc3ccc(O)cc3)NC(=O)[C@@H]3CCCN3C(=O)[C@H](CC(N)=O)NC(=O)[C@H](CC(C)C)NC(=O)[C@H](C(C)C)NC(=O)[C@H](CCC(N)=O)NC2=O)NC(=O)[C@H](C(C)C)NC(=O)[C@H]([C@@H](C)O)NC(=O)[C@@H]2CCCN2C(=O)CNC(=O)[C@H](CO)NC(=O)[C@H](Cc2ccc(O)cc2)NC(=O)CNC1=O [CBM variant 24] (H-TQS(βGlc)HYGQCGGIGYSGPTVCASGTTCQVLNPYYSQCL-OH; disulfide 8-25, 19-35) | 3 min | 16.8 ± 1.8 min
3 | CC[C@H](C)[C@@H]1NC(=O)CNC(=O)CNC(=O)[C@@H](NC(=O)[C@H](CCC(N)=O)NC(=O)CNC(=O)[C@H](Cc2ccc(O)cc2)NC(=O)[C@H](Cc2c[nH]cn2)NC(=O)[C@H](CO[C@H]2O[C@H](CO)[C@H](O)[C@H](O)[C@H]2NC(C)=O)NC(=O)[C@H](CCC(N)=O)NC(=O)[C@@H](N)[C@@H](C)O)CSSC[C@@H]2NC(=O)[C@H]([C@@H](C)O)NC(=O)[C@H]([C@@H](C)O)NC(=O)CNC(=O)[C@H](CO)NC(=O)[C@H](C)NC(=O)[C@H](CSSC[C@@H](C(=O)N[C@@H](CC(C)C)C(=O)O)NC(=O)[C@H](CCC(N)=O)NC(=O)[C@H](CO)NC(=O)[C@H](Cc3ccc(O)cc3)NC(=O)[C@H](Cc3ccc(O)cc3)NC(=O)[C@@H]3CCCN3C(=O)[C@H](CC(N)=O)NC(=O)[C@H](CC(C)C)NC(=O)[C@H](C(C)C)NC(=O)[C@H](CCC(N)=O)NC2=O)NC(=O)[C@H](C(C)C)NC(=O)[C@H]([C@@H](C)O)NC(=O)[C@@H]2CCCN2C(=O)CNC(=O)[C@H](CO)NC(=O)[C@H](Cc2ccc(O)cc2)NC(=O)CNC1=O [CBM variant 25] (H-TQS(αGalNAc)HYGQCGGIGYSGPTVCASGTTCQVLNPYYSQCL-OH; disulfide 8-25, 19-35) | 9 min | 22.8 ± 3 min
4 | CC[C@H](C)[C@@H]1NC(=O)CNC(=O)CNC(=O)[C@@H](NC(=O)[C@H](CCC(N)=O)NC(=O)CNC(=O)[C@H](Cc2ccc(O)cc2)NC(=O)[C@H](Cc2c[nH]cn2)NC(=O)[C@H](CO[C@H]2O[C@H](CO)[C@H](O)[C@H](O)[C@H]2O)NC(=O)[C@H](CCC(N)=O)NC(=O)[C@@H](N)[C@@H](C)O)CSSC[C@@H]2NC(=O)[C@H]([C@@H](C)O)NC(=O)[C@H]([C@@H](C)O)NC(=O)CNC(=O)[C@H](CO)NC(=O)[C@H](C)NC(=O)[C@H](CSSC[C@@H](C(=O)N[C@@H](CC(C)C)C(=O)O)NC(=O)[C@H](CCC(N)=O)NC(=O)[C@H](CO)NC(=O)[C@H](Cc3ccc(O)cc3)NC(=O)[C@H](Cc3ccc(O)cc3)NC(=O)[C@@H]3CCCN3C(=O)[C@H](CC(N)=O)NC(=O)[C@H](CC(C)C)NC(=O)[C@H](C(C)C)NC(=O)[C@H](CCC(N)=O)NC2=O)NC(=O)[C@H](C(C)C)NC(=O)[C@H]([C@@H](C)O)NC(=O)[C@@H]2CCCN2C(=O)CNC(=O)[C@H](CO)NC(=O)[C@H](Cc2ccc(O)cc2)NC(=O)CNC1=O [CBM variant 26] (H-TQS(X9)HYGQCGGIGYSGPTVCASGTTCQVLNPYYSQCL-OH; disulfide 8-25, 19-35) | 16.2 min | 30 ± 3 min
5 | CC[C@H](C)[C@@H]1NC(=O)CNC(=O)CNC(=O)[C@@H](NC(=O)[C@H](CCC(N)=O)NC(=O)CNC(=O)[C@H](Cc2ccc(O)cc2)NC(=O)[C@H](Cc2c[nH]cn2)NC(=O)[C@H](CO[C@@H]2O[C@H](CO)[C@H](O)[C@H](O)[C@H]2O)NC(=O)[C@H](CCC(N)=O)NC(=O)[C@@H](N)[C@@H](C)O)CSSC[C@@H]2NC(=O)[C@H]([C@@H](C)O)NC(=O)[C@H]([C@@H](C)O)NC(=O)CNC(=O)[C@H](CO)NC(=O)[C@H](C)NC(=O)[C@H](CSSC[C@@H](C(=O)N[C@@H](CC(C)C)C(=O)O)NC(=O)[C@H](CCC(N)=O)NC(=O)[C@H](CO)NC(=O)[C@H](Cc3ccc(O)cc3)NC(=O)[C@H](Cc3ccc(O)cc3)NC(=O)[C@@H]3CCCN3C(=O)[C@H](CC(N)=O)NC(=O)[C@H](CC(C)C)NC(=O)[C@H](C(C)C)NC(=O)[C@H](CCC(N)=O)NC2=O)NC(=O)[C@H](C(C)C)NC(=O)[C@H]([C@@H](C)O)NC(=O)[C@@H]2CCCN2C(=O)CNC(=O)[C@H](CO)NC(=O)[C@H](Cc2ccc(O)cc2)NC(=O)CNC1=O [CBM variant 27] (H-TQS(βGal)HYGQCGGIGYSGPTVCASGTTCQVLNPYYSQCL-OH; disulfide 8-25, 19-35) | 3.6 min | 17.4 ± 1.2 min
6 | CC[C@H](C)[C@@H]1NC(=O)CNC(=O)CNC(=O)[C@@H](NC(=O)[C@H](CCC(N)=O)NC(=O)CNC(=O)[C@H](Cc2ccc(O)cc2)NC(=O)[C@H](Cc2c[nH]cn2)NC(=O)[C@H](CO[C@@H]2O[C@@H](C)[C@@H](O)[C@@H](O)[C@@H]2O)NC(=O)[C@H](CCC(N)=O)NC(=O)[C@@H](N)[C@@H](C)O)CSSC[C@@H]2NC(=O)[C@H]([C@@H](C)O)NC(=O)[C@H]([C@@H](C)O)NC(=O)CNC(=O)[C@H](CO)NC(=O)[C@H](C)NC(=O)[C@H](CSSC[C@@H](C(=O)N[C@@H](CC(C)C)C(=O)O)NC(=O)[C@H](CCC(N)=O)NC(=O)[C@H](CO)NC(=O)[C@H](Cc3ccc(O)cc3)NC(=O)[C@H](Cc3ccc(O)cc3)NC(=O)[C@@H]3CCCN3C(=O)[C@H](CC(N)=O)NC(=O)[C@H](CC(C)C)NC(=O)[C@H](C(C)C)NC(=O)[C@H](CCC(N)=O)NC2=O)NC(=O)[C@H](C(C)C)NC(=O)[C@H]([C@@H](C)O)NC(=O)[C@@H]2CCCN2C(=O)CNC(=O)[C@H](CO)NC(=O)[C@H](Cc2ccc(O)cc2)NC(=O)CNC1=O [CBM variant 28] (H-TQS(X6)HYGQCGGIGYSGPTVCASGTTCQVLNPYYSQCL-OH; disulfide 8-25, 19-35) | 23.4 min | 37.2 ± 6.6 min
